We go through 17 compounds from PubChem BioAssay AID1963875 (Molecular Pharmacology Branch, DTP, NCI, 2024).

For orientation: viability, T/C means the ratio of treated to control. The IC50 is the concentration that inhibits the measured activity by half.

Molecules are shown by their SMILES. “And” between values parts separate entries of the source, which are not always exact repeats. Equal values may be shown once.

For the assay, the system named is KRAS-mutant PDC complex spheroid viability. As to the kind of experiment: Anticancer human tumor 186277-243-T-J2-PDC patient-derived colon adenocarcinoma cell line growth inhibition [KRAS2]. The conditions noted are these: for viability, T/C: stronger effect = lower value. The text has this: Multicellular complex tumor spheroid response to RAS pathway inhibitors in combination with a targeted agents in patient-derived cell lines with oncogenic KRAS variants from multiple cancer types
A high-throughput screen of multi-cell type tumor spheroids was designed to identify active combinations of targeted small molecules and KRAS pathway inhibitors. Complex spheroids include a stromal component modeled by human endothelial cells (HUVEC) and fibroblasts modeled by human mesenchymal stem cells (MSCs). The concentration ranges selected for each drug and investigational agent were based upon clinically achievable concentrations if the clinical Cmax of the agent was known.
Compounds. The drugs and investigational agents: BI-3406 (NSC825286), BAY-293 (NSC824723), batoprotafib (TNO155; NSC825523), sotorasib (AMG 510; NSC818433), MRTX1257 (NSC819558), elimusertib (BAY 1895344; NSC800525), molibresib (GSK525762; NSC774829), temuterkib (LY3214996; NSC803410), venetoclax (NSC766270), alisertib (NSC759677), olaparib (NSC753686), talazoparib (NSC767125), erdafitinib (NSC781556), ipatasertib (NSC767898), cabozantinib (NSC761068), nintedanib (NSC756659), abemaciclib (NSC768073), docetaxel (NSC628503), trametinib (NSC758246), and sapanisertib (NSC764658) were obtained from the National Cancer Institute (NCI) Developmental Therapeutics Program Chemical Repository. The FDA-approved anticancer drug set is available from the Developmental Therapeutics Program. […] The stock solutions were prepared in dimethyl sulfoxide (DMSO, Sigma-Aldrich, St. Louis, MO, cat. D2650) at 800-fold the tested concentration and stored at -70 degrees C prior to their use. All drugs and investigational agents were tested over a range starting from a high concentration at or near the clinical Cmax and decreasing in half-log increments. If the clinical Cmax for an agent had not been determined, the highest concentration tested was 10 microM.
Cell Culture. All cells were maintained in an incubator at 37 degrees C and 5% CO2 with 95% humidity. The PDC lines were cultured according to standard operating procedures established by the NCI PDMR (https://pdmr.cancer.gov/sops/default.htm). Briefly, all PDCs were thawed and cultured in Matrigel-coated flasks prepared with a working solution of 1X Ham's F-12 nutrient mix, without supplementation (Invitrogen, Waltham, MA, cat. 11765054), 100 U/mL penicillin-streptomycin (Invitrogen, cat. 15140122), and 2.5% Matrigel (Corning Inc., Corning, NY, cat. 354248) for the first three passages. All PDCs were cultured in complete DMEM/F-12 media containing advanced DMEM/F-12 (Invitrogen, cat. 12634028), 4.9% defined fetal bovine serum, heat inactivated (HyClone Laboratories Inc., Logan, UT, cat. SH30070.03HI), 389 ng/mL hydrocortisone (Sigma-Aldrich, cat. H4001), 9.7 ng/mL human EGF recombinant protein (Invitrogen, cat. PHG0313), 23.4 microg/mL adenine (Sigma-Aldrich, cat. A2786), 97.3 U/mL penicillin-streptomycin (Invitrogen, cat. 15140122), 1.9 mM L-glutamine (Invitrogen, cat. 25030081), and 9.7 microM Y-27632 dihydrochloride (Tocris Bioscience, Bristol, United Kingdom, cat. 1254). The PDCs were cultured in complete DMEM/F12 media without 9.7 microM Y-27632 dihydrochloride for at least two passages prior to the screen. The established cell line HOP-62 was cultured in RPMI 1640 medium, HEPES (Invitrogen, cat. 22400105) with 10% defined fetal bovine serum (HyClone Laboratories Inc., cat. SH30070.03) and 2 mM L-glutamine (Invitrogen, cat. 25030081). The pooled donor HUVEC were cultured in endothelial cell growth medium 2 (PromoCell, Heidelberg, Germany, cat. C-22011) and the hMSC were cultured in mesenchymal stem cell growth medium 2 (PromoCell, cat. C-28009). For all experiments, HUVEC and hMSC were used at passages </=5, while the malignant cell lines were used at passages </=15. […]

Setting [1] is: compound alone, run of 07/19/2021.
The mark [2] stands for this setting: compound alone, run of 07/26/2021.
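For viability, T/C in this document: viability read after seven days of compound exposure; 100% = DMSO vehicle-treated spheroids so lower means less viable.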

Regarding `C=CC(=O)N1CCN(c2nc(OCC3CCCN3C)nc3c2CCN(c2cccc4cccc(C)c24)C3)CC1CC#N` (stereo not drawn), the viability, T/C (compound 0.0316 µM) was 98.9% [middle of 16 runs]. The half-inhibitory concentration (IC50) was 1.82 µM [middle of 4 runs] under setting [1] and 1.75 µM [middle of 5 runs] under setting [2].

Take `CC(=O)Nc1cccc(-n2c(=O)n(C3CC3)c(=O)c3c(Nc4ccc(I)cc4F)n(C)c(=O)c(C)c32)c1`: the viability, T/C reads like this: (compound 0.0001 µM) 102% [middle of 5 runs]; (compound 0.001 µM) 21.2% [middle of 5 runs]; (compound 0.00316 µM) 9.7% [middle of 5 runs]; (compound 0.01 µM) 4.01% [middle of 5 runs]; (compound 0.0316 µM) 1.43% [middle of 5 runs]. Also, the IC50 (curve of compound) was 0.622 nM [middle of 5 runs].

With `CC(=O)OC12COC1CC(O)C1(C)C(=O)C(O)C3=C(C)C(OC(=O)C(O)C(NC(=O)OC(C)(C)C)c4ccccc4)CC(O)(C(OC(=O)c4ccccc4)C21)C3(C)C` (stereo not drawn), the viability, T/C by setting is: (compound 0.01 µM) 5.72% [middle of 5 runs]; (compound 0.0316 µM) 3.66% [middle of 5 runs]; (compound 0.1 µM) 3.28% [middle of 5 runs]; (compound 0.316 µM) 3.46% [middle of 4 runs]; (compound 1 µM) 3.38% [middle of 5 runs]; (compound 3.16 µM) 3.74% [middle of 5 runs]. The IC50 (curve of compound) was < 0.01 µM.

Turning to `CC(C)NCC(C(=O)N1CCN(c2ncnc3c2C(C)CC3O)CC1)c1ccc(Cl)cc1` (stereo not drawn), the viability, T/C runs as follows: (compound 0.0316 µM) 89.6% [middle of 5 runs]; (compound 0.1 µM) 89.8% [middle of 5 runs]; (compound 0.316 µM) 73% [middle of 5 runs]; (compound 1 µM) 39.9% and 40.4% (2×) and 33.2%; (compound 10 µM) 12.9% [middle of 5 runs]. Where the note is “curve of compound”, the IC50 was 746 nM [middle of 5 runs].

For the compound `CC(C)n1nc(-c2ccc3oc(N)nc3c2)c2c(N)ncnc21`, the viability, T/C was 95.7% [middle of 5 runs] (compound 0.000316 µM); 98.8% [middle of 5 runs] (compound 0.001 µM); 77.8% [middle of 5 runs] (compound 0.00316 µM); 56.7% [middle of 5 runs] (compound 0.01 µM); 32.1% [middle of 5 runs] (compound 0.0316 µM); 19.2% [middle of 5 runs] (compound 0.1 µM). In addition, the IC50 (curve of compound) was 14.1 nM [middle of 5 runs].

Turning to `CC1(C)CCC(CN2CCN(c3ccc(C(=O)NS(=O)(=O)c4ccc(NCC5CCOCC5)c([N+](=O)[O-])c4)c(Oc4cnc5[nH]ccc5c4)c3)CC2)=C(c2ccc(Cl)cc2)C1`, the viability, T/C by setting is: (compound 0.0316 µM) 97.6% [middle of 5 runs]; (compound 0.1 µM) 93.7% [middle of 5 runs]; (compound 0.316 µM) 104% [middle of 5 runs]; (compound 1 µM) 98.1% [middle of 5 runs]; (compound 3.16 µM) 22.7% [middle of 5 runs]; (compound 10 µM) 4.85% [middle of 5 runs]. Also, for the setting “curve of compound”, the 50% inhibitory concentration (IC50) was 2.07 µM [middle of 5 runs].

Regarding `CC1COCCN1c1cc(-c2ccnn2C)c2ccnc(-c3ccn[nH]3)c2n1` (stereo not drawn), the viability, T/C is 29.2% [middle of 5 runs] (compound 0.0316 µM); 7.22% [middle of 5 runs] (compound 0.1 µM); 4.63% [middle of 5 runs] (compound 0.316 µM); 3.65% [middle of 5 runs] (compound 1 µM); 4.09% [middle of 5 runs] (compound 3.16 µM).

In the case of `CC1OCC2(CCN(c3cnc(Sc4ccnc(N)c4Cl)c(N)n3)CC2)C1N` (stereo not drawn), the viability, T/C is 107% and 92.4% and 90.5% (compound 0.0316 µM); 102% [middle of 19 runs] (compound 0.1 µM). Moreover, the IC50 (compound alone, run of 07/12/2021) was > 10 µM; the half-inhibitory concentration (IC50) under setting [1] was 7.4 µM and > 10 µM; the concentration for half-maximal inhibition (IC50) under setting [2] is > 10 µM; the half-maximal inhibitory concentration (IC50) (curve of compound) was > 10 µM.

Consider `CCN1CCN(Cc2ccc(Nc3ncc(F)c(-c4cc(F)c5nc(C)n(C(C)C)c5c4)n3)nc2)CC1`, for which the viability, T/C (compound 0.00316 µM) was 98.8% [middle of 4 runs]; the viability, T/C (compound 0.01 µM) is 98.5% [middle of 4 runs]; the viability, T/C (compound 0.0316 µM) was 107% [middle of 4 runs]; the viability, T/C (compound 0.1 µM) was 112% (2×) and 136% and 113%; the viability, T/C (compound 1 µM) is 101% [middle of 4 runs]. The IC50 (curve of compound) is > 1 µM.

In the case of `CCNC(=O)CC1N=C(c2ccc(Cl)cc2)c2cc(OC)ccc2-n2c(C)nnc21` (stereo not drawn), the viability, T/C is, setting by setting: (compound 0.0316 µM) 96.3% [middle of 5 runs]; (compound 0.1 µM) 101% (4×) and 92.8%. Where the note is “curve of compound”, the 50% inhibitory concentration (IC50) is > 10 µM and 5.78 µM.

Take `CN(C)C/C=C/C(=O)Nc1cc2c(Nc3ccc(F)c(Cl)c3)ncnc2cc1O[C@H]1CCOC1`: the viability, T/C is, setting by setting: (compound 0.000316 µM) 101% [middle of 5 runs]; (compound 0.00316 µM) 101% [middle of 5 runs]; (compound 0.01 µM) 108% [middle of 5 runs]; (compound 0.0316 µM) 120% (3×) and 114% and 105%; (compound 0.1 µM) 111% [middle of 5 runs]. For the same compound, the half-inhibitory concentration (IC50) (curve of compound) was > 0.1 µM.

For the compound `COc1cc(Nc2ncc3c(n2)-c2ccc(Cl)cc2C(c2c(F)cccc2OC)=NC3)ccc1C(=O)O`, the viability, T/C (compound 0.0316 µM) is 37.6% [middle of 5 runs]; the viability, T/C (compound 0.1 µM) was 34.1% [middle of 5 runs]; the viability, T/C (compound 0.316 µM) is 33.4% [middle of 5 runs]; the viability, T/C (compound 1 µM) was 37% [middle of 5 runs]; the viability, T/C (compound 3.16 µM) is 46.8% [middle of 5 runs]; the viability, T/C (compound 10 µM) was 50.4% [middle of 5 runs]. Besides, the half-maximal inhibitory concentration (IC50) (curve of compound) is < 0.0316 µM.

For `COc1cc(OC)cc(N(CCNC(C)C)c2ccc3ncc(-c4cnn(C)c4)nc3c2)c1`, the viability, T/C (compound 0.0316 µM) is 109% [middle of 5 runs] and the viability, T/C (compound 0.1 µM) was 106% [middle of 5 runs].

On to `COc1cc2nccc(Oc3ccc(NC(=O)C4(C(=O)Nc5ccc(F)cc5)CC4)cc3)c2cc1OC`, for which the viability, T/C is, setting by setting: (compound 0.0316 µM) 92.6% [middle of 5 runs]; (compound 0.1 µM) 99.7% [middle of 5 runs]; (compound 0.316 µM) 104% [middle of 5 runs]; (compound 3.16 µM) 13.8% [middle of 5 runs]. The 50% inhibitory concentration (IC50) (curve of compound) was 2.02 µM [middle of 4 runs].

`Cn1nccc1Nc1nccc(-c2cc3c(s2)C(C)(C)N(CCN2CCOCC2)C3=O)n1`: the viability, T/C is 101% [middle of 5 runs] (compound 0.0316 µM); 90.8% [middle of 5 runs] (compound 0.1 µM); 16% [middle of 5 runs] (compound 1 µM); 6.29% [middle of 5 runs] (compound 3.16 µM); 6.23% [middle of 5 runs] (compound 10 µM). Further, the concentration for half-maximal inhibition (IC50) (curve of compound) is 383 nM [middle of 5 runs].

In the case of `Cn1ncnc1[C@H]1c2n[nH]c(=O)c3cc(F)cc(c23)N[C@@H]1c1ccc(F)cc1`, the viability, T/C by setting is: (compound 0.000316 µM) 99% [middle of 5 runs]; (compound 0.001 µM) 98% [middle of 5 runs]; (compound 0.00316 µM) 101% [middle of 5 runs]; (compound 0.01 µM) 98.1% [middle of 5 runs]; (compound 0.0316 µM) 91% [middle of 5 runs]; (compound 0.1 µM) 80.8% [middle of 5 runs]. In addition, where the note is “curve of compound”, the IC50 was > 0.1 µM.

For the compound `O=C(c1cc(Cc2n[nH]c(=O)c3ccccc23)ccc1F)N1CCN(C(=O)C2CC2)CC1`, the viability, T/C was 99.2% [middle of 5 runs] (compound 0.0316 µM), 101% [middle of 5 runs] (compound 0.1 µM), 99.5% [middle of 5 runs] (compound 0.316 µM) and 40.3% [middle of 5 runs] (compound 10 µM).
